# Laboratory results as given in patent US20240092835A1, “NOVEL PEPTIDES CAPABLE OF ALTERING NK CELL ACTIVITY” (Massachusetts Institute of Technology, priority 2022, published 2024).
# “Also recorded” adds a separate entry of the source. Where no end group is shown, it is not given here.
# Legend:
# NKG2A+/NKG2C− NK cells = assay: NK cell activation markers in NKG2A+/NKG2C- NK cells incubated with peptide and K562 expressing HLA-E (inhibition); assay type: cell-based, human; settings: for effect on NKG2A+/NKG2C− NK cell inhibition (in words): K562 expressing HLA-E, CD107a, IFNG, TNF, CCL3; for percentage of CCL3+ NK cells / percentage of CD107a+ NK cells / percentage of IFNG+ NK cells / percentage of TNF+ NK cells: NKG2A+/NKG2C- NK cells, K562/HLA-E
# How it was run: (§1)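 Read-out: % NK cells positive for surface activation markers; a rise indicates activation, a fall indicates inhibition. Targets were K562 cells expressing HLA-E, loaded with human- or HCMV-proteome-derived peptides.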
# NKG2A−/NKG2C+ NK cells [1] = assay: NK cell activation markers in NKG2A-/NKG2C+ NK cells incubated with peptide and K562 expressing HLA-E (activation); assay type: cell-based, human; settings: for effect on NKG2A−/NKG2C+ NK cell activation (in words): K562 expressing HLA-E, CD107a, IFNG, TNF, CCL3; for percentage of CCL3+ NK cells / percentage of CD107+ NK cells / percentage of IFNG+ NK cells / percentage of TNF+ NK cells: NKG2A-/NKG2C+ NK cells, K562/HLA-E
# How it was run: as §1
# NKG2A−/NKG2C+ NK cells [2] = assay: NKG2A-/NKG2C+ NK cell activation with peptide and RMA-S cells expressing HLA-E; assay type: cell-based; settings: RMA-S cells expressing HLA-E, NKG2A−/NKG2C+ NK cells
# Protocol: An antigen processing-defective lymphoma cell line (RMA-S), with a low-level expression of HLA-E, were incubated with the novel peptides to determine the inhibitory strength on NKG2A−/NKG2C+NK cells relative to positive control sequences with differential effects ([…] (SEQ ID NO: 19)/VMAPRTLFL (SEQ ID NO: 18)). The effects of the peptides on NK cell inhibition were determined by measuring four markers of NK cell activation (CD107a, IFNG, TNF, CCL3) in NKG2A−/NKG2C+NK cells (FIGS. 2A-2D). Activation was indicated by an increase in percent cells positive for cell surface markers.
# HLA-E = molecular target: T1, HLA-E (Homo sapiens, UniProt P13747); assay: HLA-E surface stabilization assay with RMA-S/HLA-E cells; assay type: cell-based; settings: 30 μM peptide, 16 hours; for HLA-E surface expression stability (GeoMFI): anti-HLA-E antibody
# T1 construct: expressed in transfected cells; host or cells: RMA-S/HLA-E cells (antigen processing-defective lymphoma cell line)
# T1 sequence (P13747 22-358): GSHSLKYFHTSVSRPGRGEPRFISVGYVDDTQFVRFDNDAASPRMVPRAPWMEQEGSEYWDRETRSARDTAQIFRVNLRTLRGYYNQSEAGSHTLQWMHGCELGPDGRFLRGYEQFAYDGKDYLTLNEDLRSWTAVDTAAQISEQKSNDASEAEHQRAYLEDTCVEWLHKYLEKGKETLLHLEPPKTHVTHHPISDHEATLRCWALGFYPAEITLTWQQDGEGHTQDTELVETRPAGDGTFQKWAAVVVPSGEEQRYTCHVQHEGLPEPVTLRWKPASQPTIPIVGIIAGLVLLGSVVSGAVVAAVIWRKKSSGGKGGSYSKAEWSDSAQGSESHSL
# T1 sequence (P61769 21-119 partner): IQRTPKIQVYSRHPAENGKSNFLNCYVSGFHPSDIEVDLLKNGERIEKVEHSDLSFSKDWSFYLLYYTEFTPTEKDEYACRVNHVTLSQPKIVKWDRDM
# Protocol: HLA-E surface expression was assessed by measuring geometric mean fluorescence intensity (GeoMFI) in RMA-S cells following immunofluorescence staining with an anti-HLA-E antibody (Table 14). Increased GeoMFI was indicative of increased HLA-E surface expression stability following novel peptide exposures (FIG. 3).
# CD94/NKG2C = CD94/NKG2C (Homo sapiens, UniProt P26717+Q13241); assay: Steady-state surface plasmon resonance of peptide-HLA-E complex with CD94/NKG2C; assay type: binding; settings: for Binding of peptide-HLA-E complexes to CD94/NKG2C normalized to a theoretical Rmax: steady-state SPR
# Sequence of CD94/NKG2C (P26717 94-231 limits assumed): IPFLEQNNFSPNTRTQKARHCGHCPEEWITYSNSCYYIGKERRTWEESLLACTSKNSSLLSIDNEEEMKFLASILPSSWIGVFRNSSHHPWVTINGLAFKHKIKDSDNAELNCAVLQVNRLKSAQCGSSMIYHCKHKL
# Sequence of CD94/NKG2C (Q13241 32-179 limits assumed): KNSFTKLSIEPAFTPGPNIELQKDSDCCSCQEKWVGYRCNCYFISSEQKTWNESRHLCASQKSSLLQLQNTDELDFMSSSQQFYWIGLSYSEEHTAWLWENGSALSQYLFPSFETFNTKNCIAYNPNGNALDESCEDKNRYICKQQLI
sequence,measurement,setting,value
"TGPWRSLWI [human3, TGPWRSLWI]",effect on NKG2A+/NKG2C− NK cell inhibition (in words),NKG2A+/NKG2C− NK cells; listed as SEQ ID NO. 2,no or minimal effect
same,effect on NKG2A+/NKG2C− NK cell inhibition (in words),NKG2A+/NKG2C− NK cells; listed as h3,no effect
same,percentage of CCL3+ NK cells,NKG2A+/NKG2C− NK cells; Trial 1,54.6%
same,percentage of CD107a+ NK cells,NKG2A+/NKG2C− NK cells; Trial 1,34.8%
same,percentage of IFNG+ NK cells,NKG2A+/NKG2C− NK cells; Trial 1,15.5%
same,percentage of TNF+ NK cells,NKG2A+/NKG2C− NK cells; Trial 1,6.18%
same,percentage of CCL3+ NK cells,NKG2A+/NKG2C− NK cells; Trial 2,73.9%
same,percentage of CD107a+ NK cells,NKG2A+/NKG2C− NK cells; Trial 2,47.2%
same,percentage of IFNG+ NK cells,NKG2A+/NKG2C− NK cells; Trial 2,26.8%
same,percentage of TNF+ NK cells,NKG2A+/NKG2C− NK cells; Trial 2,12.4%
same,percentage of CCL3+ NK cells,NKG2A+/NKG2C− NK cells; Trial 3,55.1%
same,percentage of CD107a+ NK cells,NKG2A+/NKG2C− NK cells; Trial 3,44.9%
same,percentage of IFNG+ NK cells,NKG2A+/NKG2C− NK cells; Trial 3,32.1%
same,percentage of TNF+ NK cells,NKG2A+/NKG2C− NK cells; Trial 3,19.7%
same,percentage of CCL3+ NK cells,NKG2A+/NKG2C− NK cells; Trial 4,46.5%
same,percentage of CD107a+ NK cells,NKG2A+/NKG2C− NK cells; Trial 4,37.7%
same,percentage of IFNG+ NK cells,NKG2A+/NKG2C− NK cells; Trial 4,20.1%
same,percentage of TNF+ NK cells,NKG2A+/NKG2C− NK cells; Trial 4,12.5%
same,percentage of CCL3+ NK cells,NKG2A+/NKG2C− NK cells; Trial 5,49.6%
same,percentage of CD107a+ NK cells,NKG2A+/NKG2C− NK cells; Trial 5,35.9%
same,percentage of IFNG+ NK cells,NKG2A+/NKG2C− NK cells; Trial 5,19.2%
same,percentage of TNF+ NK cells,NKG2A+/NKG2C− NK cells; Trial 5,9.62%
same,percentage of CCL3+ NK cells,NKG2A+/NKG2C− NK cells; Trial 6,33.1%
same,percentage of CD107a+ NK cells,NKG2A+/NKG2C− NK cells; Trial 6,25.7%
same,percentage of IFNG+ NK cells,NKG2A+/NKG2C− NK cells; Trial 6,9.52%
same,percentage of TNF+ NK cells,NKG2A+/NKG2C− NK cells; Trial 6,5.43%
same,effect on NKG2A−/NKG2C+ NK cell activation (in words),NKG2A−/NKG2C+ NK cells [1]; listed as SEQ ID NO. 2,activate
same,effect on NKG2A−/NKG2C+ NK cell activation (in words),NKG2A−/NKG2C+ NK cells [1]; listed as h3,activated
same,percentage of CCL3+ NK cells,NKG2A−/NKG2C+ NK cells [1]; Trial 1,60.9%
same,percentage of CD107+ NK cells,NKG2A−/NKG2C+ NK cells [1]; Trial 1,50.7%
same,percentage of IFNG+ NK cells,NKG2A−/NKG2C+ NK cells [1]; Trial 1,27.8%
same,percentage of TNF+ NK cells,NKG2A−/NKG2C+ NK cells [1]; Trial 1,19.1%
same,percentage of CCL3+ NK cells,NKG2A−/NKG2C+ NK cells [1]; Trial 2,75.8%
same,percentage of CD107+ NK cells,NKG2A−/NKG2C+ NK cells [1]; Trial 2,63.4%
same,percentage of IFNG+ NK cells,NKG2A−/NKG2C+ NK cells [1]; Trial 2,36.4%
same,percentage of TNF+ NK cells,NKG2A−/NKG2C+ NK cells [1]; Trial 2,24.8%
same,percentage of CCL3+ NK cells,NKG2A−/NKG2C+ NK cells [1]; Trial 3,75.7%
same,percentage of CD107+ NK cells,NKG2A−/NKG2C+ NK cells [1]; Trial 3,73.9%
same,percentage of IFNG+ NK cells,NKG2A−/NKG2C+ NK cells [1]; Trial 3,55.4%
same,percentage of TNF+ NK cells,NKG2A−/NKG2C+ NK cells [1]; Trial 3,47.1%
same,percentage of CCL3+ NK cells,NKG2A−/NKG2C+ NK cells [1]; Trial 4,64.5%
same,percentage of CD107+ NK cells,NKG2A−/NKG2C+ NK cells [1]; Trial 4,62.3%
same,percentage of IFNG+ NK cells,NKG2A−/NKG2C+ NK cells [1]; Trial 4,46.9%
same,percentage of TNF+ NK cells,NKG2A−/NKG2C+ NK cells [1]; Trial 4,37.4%
same,percentage of CCL3+ NK cells,NKG2A−/NKG2C+ NK cells [1]; Trial 5,65.7%
same,percentage of CD107+ NK cells,NKG2A−/NKG2C+ NK cells [1]; Trial 5,61%
same,percentage of IFNG+ NK cells,NKG2A−/NKG2C+ NK cells [1]; Trial 5,43.5%
same,percentage of TNF+ NK cells,NKG2A−/NKG2C+ NK cells [1]; Trial 5,37.7%
same,percentage of CCL3+ NK cells,NKG2A−/NKG2C+ NK cells [1]; Trial 6,46%
same,percentage of CD107+ NK cells,NKG2A−/NKG2C+ NK cells [1]; Trial 6,39.5%
same,percentage of IFNG+ NK cells,NKG2A−/NKG2C+ NK cells [1]; Trial 6,23.3%
same,percentage of TNF+ NK cells,NKG2A−/NKG2C+ NK cells [1]; Trial 6,15.8%
same,increase in CCL3+ NK cells (in words),NKG2A−/NKG2C+ NK cells [2],slight increases
same,increase in CD107a+ NK cells (in words),NKG2A−/NKG2C+ NK cells [2],slight increases
same,increase in IFNG+ NK cells (in words),NKG2A−/NKG2C+ NK cells [2],no increase
same,increase in TNF+ NK cells (in words),NKG2A−/NKG2C+ NK cells [2],no increase
same,HLA-E surface expression stability (GeoMFI),HLA-E; Trial 1,510 GeoMFI
same,HLA-E surface expression stability (GeoMFI),HLA-E; Trial 2,428 GeoMFI
same,HLA-E surface expression stability (GeoMFI),HLA-E; Trial 3,421 GeoMFI
same,HLA-E surface expression stability (GeoMFI),HLA-E; Trial 4,596 GeoMFI
same,HLA-E surface expression stabilization strength (in words),HLA-E; listed as GTF3C5293-301,closest to the experimental negative control (DMSO); also recorded: lowest
same,binding of peptide-HLA-E complex to CD94/NKG2C normalized to a fitted Rmax,CD94/NKG2C; CD94/NKG2C concentration 0 μM,0.006
same,binding of peptide-HLA-E complex to CD94/NKG2C normalized to a fitted Rmax,CD94/NKG2C; CD94/NKG2C concentration 0.1 μM,0.008
same,binding of peptide-HLA-E complex to CD94/NKG2C normalized to a fitted Rmax,CD94/NKG2C; CD94/NKG2C concentration 0.2 μM,0.007
same,binding of peptide-HLA-E complex to CD94/NKG2C normalized to a fitted Rmax,CD94/NKG2C; CD94/NKG2C concentration 0.4 μM,0.011
same,binding of peptide-HLA-E complex to CD94/NKG2C normalized to a fitted Rmax,CD94/NKG2C; CD94/NKG2C concentration 0.8 μM,0.016
same,binding of peptide-HLA-E complex to CD94/NKG2C normalized to a fitted Rmax,CD94/NKG2C; CD94/NKG2C concentration 1.6 μM,0.026
same,binding of peptide-HLA-E complex to CD94/NKG2C normalized to a fitted Rmax,CD94/NKG2C; CD94/NKG2C concentration 3.2 μM,0.044
same,binding of peptide-HLA-E complex to CD94/NKG2C normalized to a fitted Rmax,CD94/NKG2C; CD94/NKG2C concentration 6.4 μM,0.078
same,binding of peptide-HLA-E complex to CD94/NKG2C normalized to a fitted Rmax,CD94/NKG2C; CD94/NKG2C concentration 12.8 μM,0.130
same,binding of peptide-HLA-E complex to CD94/NKG2C normalized to a fitted Rmax,CD94/NKG2C; CD94/NKG2C concentration 25.6 μM,0.219
same,binding of peptide-HLA-E complex to CD94/NKG2C normalized to a fitted Rmax,CD94/NKG2C; CD94/NKG2C concentration 51.2 μM,0.353
same,binding of peptide-HLA-E complex to CD94/NKG2C normalized to a fitted Rmax,CD94/NKG2C; CD94/NKG2C concentration 102.4 μM,0.537
same,Binding of peptide-HLA-E complexes to CD94/NKG2C normalized to a theoretical Rmax,CD94/NKG2C; CD94/NKG2C analyte concentration 0 μM,0.002
same,Binding of peptide-HLA-E complexes to CD94/NKG2C normalized to a theoretical Rmax,CD94/NKG2C; CD94/NKG2C analyte concentration 0.1 μM,0.003
same,Binding of peptide-HLA-E complexes to CD94/NKG2C normalized to a theoretical Rmax,CD94/NKG2C; CD94/NKG2C analyte concentration 0.2 μM,0.003
same,Binding of peptide-HLA-E complexes to CD94/NKG2C normalized to a theoretical Rmax,CD94/NKG2C; CD94/NKG2C analyte concentration 0.4 μM,0.004
same,Binding of peptide-HLA-E complexes to CD94/NKG2C normalized to a theoretical Rmax,CD94/NKG2C; CD94/NKG2C analyte concentration 0.8 μM,0.006
same,Binding of peptide-HLA-E complexes to CD94/NKG2C normalized to a theoretical Rmax,CD94/NKG2C; CD94/NKG2C analyte concentration 1.6 μM,0.010
same,Binding of peptide-HLA-E complexes to CD94/NKG2C normalized to a theoretical Rmax,CD94/NKG2C; CD94/NKG2C analyte concentration 3.2 μM,0.017
same,Binding of peptide-HLA-E complexes to CD94/NKG2C normalized to a theoretical Rmax,CD94/NKG2C; CD94/NKG2C analyte concentration 6.4 μM,0.030
same,Binding of peptide-HLA-E complexes to CD94/NKG2C normalized to a theoretical Rmax,CD94/NKG2C; CD94/NKG2C analyte concentration 12.8 μM,0.050
same,Binding of peptide-HLA-E complexes to CD94/NKG2C normalized to a theoretical Rmax,CD94/NKG2C; CD94/NKG2C analyte concentration 25.6 μM,0.084
same,Binding of peptide-HLA-E complexes to CD94/NKG2C normalized to a theoretical Rmax,CD94/NKG2C; CD94/NKG2C analyte concentration 51.2 μM,0.135
same,Binding of peptide-HLA-E complexes to CD94/NKG2C normalized to a theoretical Rmax,CD94/NKG2C; CD94/NKG2C analyte concentration 102.4 μM,0.205
